Source: patent US20260199273A1, “Compounds for the Treatment of Neuromuscular Disorders” (NMD PHARMA A/S, priority 2022, published 2026)

Key:
[1] = tested on: isolated rat soleus nerve-muscle preparations; test: Measurement of force in an in vitro model: recovery of nerve-stimulated contractile force after tubocurarine; settings: 40 min, after 40 mins of compound exposure, tubocurarine (115 nM) for 90 minutes, read-out: Point increase (%): percentage increase of initial force that was restored; for activation at 10 µM: 10 μM of test compound; for activation at 50 µM: 50 μM of test compound
Method: In one aspect, the invention relates to a method for recovery of force in muscles with neuromuscular dysfunction, said method comprising administering a compound or a composition as defined herein to a subject in need thereof. The term “recovery of force in muscles with neuromuscular dysfunction” as used herein refers to the ability of a compound to recover contractile force in nerve-stimulated healthy rat muscle after exposure to submaximal concentration (115 nM) of tubocurarine for 90 minutes.
Recovery of force is quantified as the percentage of the force prior to tubocurarine that is recovered after addition of the compound. In one embodiment, said recovery of force is >5%, such as >10%, such as >15%, such as >20%, such as >25%, such as >30%, such as >35%.
The current disclosure relates to compounds that inhibit CIC-1 ion channels and increase muscle excitability and thereby improve muscle function in clinical conditions where muscle activation is failing. Such conditions result in loss of contractile function of skeletal muscle, weakness and excessive fatigue. In this series of experiments the compounds were tested for their ability to restore contractile function of isolated rat muscle when the neuromuscular transmission had been compromised akin to neuromuscular disorders.
Experimentally, soleus muscles from 4-5 week old rats were isolated with the motor nerve remaining attached. The nerve-muscle preparations were mounted in experimental setups that enabled electrical stimulation of the motor nerve. Stimulation of the motor nerve led to activation of the muscle fibres and ensuing force production that was recorded. The nerve-muscle preparations were also in these experiments incubated in the standard Krebs Ringer (see example 15) and the solution was heated to 30° C. and continuously equilibrated with a mixture of 95% O2 and 5% CO2, pH ~7.4.
After mounting the nerve-muscle preparation in the experimental setup, the contractile function of the muscle was initially assessed under the control conditions. Sub-maximal concentration of tubocurarine (115 nM), an acetylcholine receptor antagonist, was then added to the experimental bath to impose partial inhibition of the ability of the motor nerve to activate the muscle fibres. The experimental condition mimics the failing neuromuscular transmission in a range of neuromuscular disorders. After addition of tubocurarine the contractile force declined over the next 90 minutes to 10-50% of the control force. The test compound was then added to obtain the required compound concentration in the bath and the contractile force recovered was measured. To quantify the ability of the compound to restore force the percentage of the initial force that was restored was determined after 40 mins of compound exposure and the point increase is reported in Tables 3 to 7.

CIC-1 ion channel = target: T1, CIC-1 ion channel (Rattus norvegicus, UniProt P35524); test: Electrophysiological measurement of compound inhibition of CIC-1 in rat muscle (Gm in soleus fibres, three micro-electrodes); format: cell-based; settings: Gm in individual fibres of whole rat soleus muscles, approx. 30° C., four increasing compound concentrations; read-out: Potency Range (EC50, inhibition of CIC-1 ion channel)
T1 construct: from tissue; host or cells: whole soleus muscle of 12-14 week old Wistar rats
T1 sequence (P35524 1-994): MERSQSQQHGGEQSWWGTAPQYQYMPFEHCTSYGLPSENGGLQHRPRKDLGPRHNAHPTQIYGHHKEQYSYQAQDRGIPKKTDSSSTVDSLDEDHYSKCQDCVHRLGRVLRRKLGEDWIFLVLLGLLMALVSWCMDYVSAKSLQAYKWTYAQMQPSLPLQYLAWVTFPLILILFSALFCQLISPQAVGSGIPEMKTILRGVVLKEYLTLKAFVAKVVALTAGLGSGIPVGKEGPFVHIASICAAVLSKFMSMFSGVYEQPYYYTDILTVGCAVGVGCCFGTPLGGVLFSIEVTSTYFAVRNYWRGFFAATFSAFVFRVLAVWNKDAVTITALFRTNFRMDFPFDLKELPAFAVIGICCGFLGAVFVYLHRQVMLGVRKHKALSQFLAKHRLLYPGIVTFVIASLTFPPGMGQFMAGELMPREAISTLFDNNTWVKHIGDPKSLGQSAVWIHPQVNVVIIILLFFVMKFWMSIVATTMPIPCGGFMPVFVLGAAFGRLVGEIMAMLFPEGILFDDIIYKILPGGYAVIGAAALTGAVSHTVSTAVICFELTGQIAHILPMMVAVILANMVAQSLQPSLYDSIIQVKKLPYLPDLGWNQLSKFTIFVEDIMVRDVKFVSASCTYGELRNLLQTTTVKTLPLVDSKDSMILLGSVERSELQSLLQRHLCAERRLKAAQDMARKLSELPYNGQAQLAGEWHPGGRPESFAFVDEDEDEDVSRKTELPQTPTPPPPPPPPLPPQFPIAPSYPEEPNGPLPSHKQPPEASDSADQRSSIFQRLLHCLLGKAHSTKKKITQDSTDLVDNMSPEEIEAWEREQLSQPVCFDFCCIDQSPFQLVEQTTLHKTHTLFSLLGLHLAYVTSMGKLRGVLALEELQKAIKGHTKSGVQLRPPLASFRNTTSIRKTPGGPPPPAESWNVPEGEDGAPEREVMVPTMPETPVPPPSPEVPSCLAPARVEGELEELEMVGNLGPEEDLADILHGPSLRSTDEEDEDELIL
Method: Apparent CIC-1 affinity was reported by the concentration of compound at which 50% of the compound's full inhibition of CIC-1 was observed (EC50) (see also WO2019/115777).
Experimentally, Gm was measured in individual fibres of whole rat soleus muscles using a three micro-electrodes technique described in this example and in full detail elsewhere (Riisager et al., Determination of cable parameters in skeletal muscle fibres during repetitive firing of action potentials. Journal of Physiology, 2014, 592, 4417-4429). Briefly, intact rat soleus muscles were dissected out from 12-14 week old Wistar rats and placed in an experimental chamber that was perfused with a standard Krebs Ringer solution containing 122 mM NaCl, 25 mM NaHCO3, 2.8 mM KCl, 1.2 mM KH2PO4, 1.2 mM MgSO4, 1.3 mM CaCl2, 5.0 mM D-glucose. During experiments, the solution was kept at approx. 30° C. and continuously equilibrated with a mixture of 95% O2 and 5% CO2, pH ~7.4. The experimental chamber was placed in Nikon upright microscope that was used to visualize individual muscle fibres and the three electrodes (glass pipettes filled with 2 M potassium citrate). For Gm measurements, the electrodes were inserted into the same fibre with known inter-electrode distances of 0.35-0.5 mm (V1-V2, X1) and 1.1-1.5 mm (V1-V3, X3). The membrane potential of the impaled muscle fibre was recorded by all electrodes. Two of the electrodes were furthermore used to inject 50 ms current pulses of −30 nA. […] The steady state voltage deflection at each distance was divided by the magnitude of current injected (−30 nA) and the resulting transfer resistances were plotted against inter-electrode distance and the data was fitted to a mono-exponential function from which Gm could be calculated using linear cable theory.
To establish a dose response relationship, Gm was first determined in 10 muscle fibres in the absence of compound and then at four increasing compound concentrations with Gm determinations in 5-10 fibres at each concentration. The average Gm values at each concentration were plotted against compound concentration and the data was fitted to sigmoidal function to obtain an EC5o value.

| EC50 (CIC-1 ion channel) [µM] | SMILES | activation at 10 µM [1] [%] | activation at 50 µM [1] [%] |
| --- | --- | --- | --- |
| 0.2 to 2 | CSc1c(Cl)cc2c(c1C(=O)O)CCCC2 [Compound A-32, 3-Chloro-2-(methylsulfanyl)-5,6,7,8-tetrahydronaphthalene-1-carboxylic acid] | 24 | – |
| 10 to 20 | CCc1c(Cl)cc2c(c1C(=O)O)CCC2 [Compound A-13, 6-Chloro-5-ethyl-2,3-dihydro-1H-indene-4-carboxylic acid] | – | 26 |
| 0.2 to 2 | O=C(O)c1c2c(cc(Cl)c1OC(F)F)CCCC2 [Compound A-25, 3-Chloro-2-(difluoromethoxy)-5,6,7,8-tetrahydronaphthalene-1-carboxylic acid] | 43 | – |
| 2 to 10 | COc1cc2c(c(C(=O)O)c1Cl)CCCCC2 [Compound A-24, 2-Chloro-3-methoxy-6,7,8,9-tetrahydro-5H-benzo[7]annulene-1-carboxylic acid] | – | 43 |
| 0.2 to 2 | O=C(O)c1c(F)c(Cl)cc2c1CCCC2 [Compound A-26, 3-Chloro-2-fluoro-5,6,7,8-tetrahydronaphthalene-1-carboxylic acid] | 52 | – |
| 2 to 10 | O=C(O)c1c(F)c(Cl)cc2c1CCC2 [Compound A-63, 6-Chloro-5-fluoro-2,3-dihydro-1H-indene-4-carboxylic acid] | 28 | – |
| 2 to 10 | O=C(O)c1c(Cl)c(F)cc2c1CCCC2 [Compound A-27, 2-chloro-3-fluoro-5,6,7,8-tetrahydronaphthalene-1-carboxylic acid] | 38 | – |
| 2 to 10 | CSc1c(Cl)cc2c(c1C(=O)O)CCC2 [Compound A-23, 6-Chloro-5-(methylsulfanyl)-2,3-dihydro-1H-indene-4-carboxylic acid] | – | 44 |
| 2 to 10 | Cc1cc2c(c(C(=O)O)c1Cl)CCCC2 [Compound A-28, 2-chloro-3-methyl-5,6,7,8-tetrahydronaphthalene-1-carboxylic acid] | – | 39 |

Second part, the compound before the results:

| SMILES | EC50 (CIC-1 ion channel) [µM] | activation at 10 µM [1] [%] | activation at 50 µM [1] [%] |
| --- | --- | --- | --- |
| O=C(O)c1c(F)c(Cl)cc2c1OCCC2 [Compound A-36, 6-Chloro-7-fluoro-3,4-dihydro-2H-1-benzopyran-8-carboxylic acid] | 2 to 10 | 43 | – |
| CCc1cc2c(c(C(=O)O)c1F)CCCC2 [Compound A-51, 3-Ethyl-2-fluoro-5,6,7,8-tetrahydronaphthalene-1-carboxylic acid] | 2 to 10 | 29 | – |
| CC1(C)CCc2cc(Cl)c(F)c(C(=O)O)c2O1 [Compound A-61, 6-Chloro-7-fluoro-2,2-dimethyl-3,4-dihydro-2H-1-benzopyran-8-carboxylic acid] | 0.2 to 2 | 63 | – |
| O=C(O)c1c(F)c(C2CC2)cc2c1CCCC2 [Compound A-54, 3-Cyclopropyl-2-fluoro-5,6,7,8-tetrahydronaphthalene-1-carboxylic acid] | 10 to 20 | – | 47 |
| COc1c(Cl)cc2c(c1C(=O)O)C(F)(F)CCC2 [Compound A-59, 3-chloro-8,8-difluoro-2-methoxy-5,6,7,8-tetrahydronaphthalene-1-carboxylic acid] | 2 to 10 | 53 | – |
| Cc1cc2c(c(C(=O)O)c1F)SCCC2 [Compound A-48, 7-fluoro-6-methyl-3,4-dihydro-2H-1-benzothiopyran-8-carboxylic acid] | 2 to 10 | 25 | – |
| COc1c(Cl)cc2c(c1C(=O)O)OCC2 [Compound A-15, 5-Chloro-6-methoxy-2,3-dihydro-1-benzofuran-7-carboxylic acid] | 2 to 10 | – | 40 |
| O=C(O)c1c(F)c(Cl)cc2c1N(Cc1ccccc1)CCC2 [Compound A-71, 1-Benzyl-6-chloro-7-fluoro-1,2,3,4-tetrahydro-8-quinolinecarboxylic acid] | 0.2 to 2 | 23 | – |
| O=C(O)c1c(F)c(Cl)cc2c1N(Cc1ccc(F)cc1)CCC2 [Compound A-72, 6-Chloro-7-fluoro-1-[(p-fluorophenyl)methyl]-1,2,3,4-tetrahydro-8-quinolinecarboxylic acid] | 0.2 to 2 | 20 | – |
| COc1c(Cl)c(F)c2c(c1C(=O)O)CCCC2 [Compound A-19, 3-Chloro-4-fluoro-2-methoxy-5,6,7,8-tetrahydronaphthalene-1-carboxylic acid] | 0.2 to 2 | – | 41 |
| Cc1c(Cl)cc2c(c1C(=O)O)C1CCC2C1 (stereo not shown) [Compound A-21, 5-chloro-4-methyltricyclo[6.2.1.0^2,7]undeca-2(7),3,5-triene-3-carboxylic acid] | 10 to 20 | – | 42 |
| COc1c(Cl)cc2c(c1C(=O)O)C1CCC2C1 (stereo not shown) [Compound A-16, 5-Chloro-4-methoxytricyclo[6.2.1.0^2,7]undeca-2(7),3,5-triene-3-carboxylic acid] | 0.2 to 2 | 43 | – |
| Cc1c(Cl)cc2c(c1C(=O)O)OCCC2 [Compound A-14, 6-Chloro-7-methyl-3,4-dihydro-2H-1-benzopyran-8-carboxylic acid] | 10 to 20 | – | 39 |
| COc1c(Cl)cc2c(c1C(=O)O)C1CCC2CC1 [Compound A-29, 5-Chloro-4-methoxytricyclo[6.2.2.0^2,7]dodeca-2,4,6-triene-3-carboxylic acid] | 2 to 10 | – | 42 |
